Source: the NIST ThermoML archive (doi:10.1016/j.fluid.2015.07.030)

Experiment: refractive index (other wavelength) (dimensionless); xn = mol fraction of the nth substance listed
Conditions: 95.99 kPa, Liquid, Standard Abbe refractometry

OCCOCCOCCO [triethylene glycol] + O
Conditions	refractive index
298.15 K, Wavelength=644 nm, x2 = 0.9708	1.35412
298.15 K, Wavelength=644 nm, x2 = 0.979	1.34905
298.15 K, Wavelength=644 nm, x2 = 0.9867	1.34308
298.15 K, Wavelength=644 nm, x2 = 0.9936	1.3369
298.15 K, Wavelength=706.5 nm, x2 = 0	1.45075
298.15 K, Wavelength=706.5 nm, x2 = 0.1056	1.44937
298.15 K, Wavelength=706.5 nm, x2 = 0.2069	1.44768
298.15 K, Wavelength=706.5 nm, x2 = 0.3104	1.44445
298.15 K, Wavelength=706.5 nm, x2 = 0.4844	1.44065
298.15 K, Wavelength=706.5 nm, x2 = 0.5016	1.43966
298.15 K, Wavelength=706.5 nm, x2 = 0.5952	1.43307
298.15 K, Wavelength=706.5 nm, x2 = 0.6016	1.4331
298.15 K, Wavelength=706.5 nm, x2 = 0.6788	1.42668
298.15 K, Wavelength=706.5 nm, x2 = 0.7835	1.41733
298.15 K, Wavelength=706.5 nm, x2 = 0.8184	1.41213
298.15 K, Wavelength=706.5 nm, x2 = 0.8473	1.40596
298.15 K, Wavelength=706.5 nm, x2 = 0.8719	1.39912
298.15 K, Wavelength=706.5 nm, x2 = 0.8926	1.39147
298.15 K, Wavelength=706.5 nm, x2 = 0.9106	1.38588
298.15 K, Wavelength=706.5 nm, x2 = 0.9254	1.37553
298.15 K, Wavelength=706.5 nm, x2 = 0.9303	1.37697
298.15 K, Wavelength=706.5 nm, x2 = 0.9391	1.3729
298.15 K, Wavelength=706.5 nm, x2 = 0.951	1.3662
298.15 K, Wavelength=706.5 nm, x2 = 0.9599	1.36035
298.15 K, Wavelength=706.5 nm, x2 = 0.9708	1.35254
298.15 K, Wavelength=706.5 nm, x2 = 0.979	1.34751
298.15 K, Wavelength=706.5 nm, x2 = 0.9867	1.34153
298.15 K, Wavelength=706.5 nm, x2 = 0.9936	1.3354
303.15 K, Wavelength=404.7 nm, x2 = 0	1.4657
303.15 K, Wavelength=404.7 nm, x2 = 0.1056	1.4643
303.15 K, Wavelength=404.7 nm, x2 = 0.2069	1.46262
303.15 K, Wavelength=404.7 nm, x2 = 0.3104	1.45889
303.15 K, Wavelength=404.7 nm, x2 = 0.4844	1.45533
303.15 K, Wavelength=404.7 nm, x2 = 0.5016	1.45432
303.15 K, Wavelength=404.7 nm, x2 = 0.5952	1.44749
303.15 K, Wavelength=404.7 nm, x2 = 0.6016	1.44759
303.15 K, Wavelength=404.7 nm, x2 = 0.6788	1.44091
303.15 K, Wavelength=404.7 nm, x2 = 0.7835	1.4314
303.15 K, Wavelength=404.7 nm, x2 = 0.8184	1.42604
303.15 K, Wavelength=404.7 nm, x2 = 0.8473	1.41954
303.15 K, Wavelength=404.7 nm, x2 = 0.8719	1.41258
303.15 K, Wavelength=404.7 nm, x2 = 0.8926	1.4048
303.15 K, Wavelength=404.7 nm, x2 = 0.9106	1.39915
303.15 K, Wavelength=404.7 nm, x2 = 0.9254	1.38867
303.15 K, Wavelength=404.7 nm, x2 = 0.9303	1.38901
303.15 K, Wavelength=404.7 nm, x2 = 0.9391	1.38606
303.15 K, Wavelength=404.7 nm, x2 = 0.951	1.37929
303.15 K, Wavelength=404.7 nm, x2 = 0.9599	1.37327
303.15 K, Wavelength=404.7 nm, x2 = 0.9708	1.3651
303.15 K, Wavelength=404.7 nm, x2 = 0.979	1.36001
303.15 K, Wavelength=404.7 nm, x2 = 0.9867	1.3539
303.15 K, Wavelength=404.7 nm, x2 = 0.9936	1.3476
303.15 K, Wavelength=435.8 nm, x2 = 0	1.46213
303.15 K, Wavelength=435.8 nm, x2 = 0.1056	1.46075
303.15 K, Wavelength=435.8 nm, x2 = 0.2069	1.4591
303.15 K, Wavelength=435.8 nm, x2 = 0.3104	1.45541
303.15 K, Wavelength=435.8 nm, x2 = 0.4844	1.4519
303.15 K, Wavelength=435.8 nm, x2 = 0.5016	1.4509
303.15 K, Wavelength=435.8 nm, x2 = 0.5952	1.44412
303.15 K, Wavelength=435.8 nm, x2 = 0.6016	1.44421
303.15 K, Wavelength=435.8 nm, x2 = 0.6788	1.43757
303.15 K, Wavelength=435.8 nm, x2 = 0.7835	1.4281
303.15 K, Wavelength=435.8 nm, x2 = 0.8184	1.4228
303.15 K, Wavelength=435.8 nm, x2 = 0.8473	1.41636
303.15 K, Wavelength=435.8 nm, x2 = 0.8719	1.40944
303.15 K, Wavelength=435.8 nm, x2 = 0.8926	1.40173
303.15 K, Wavelength=435.8 nm, x2 = 0.9106	1.39612
